The text below walks through data of patent publication US7485633B2, “Cyclopropyl fused indolobenzazepine HCV NS5B inhibitors” (Bristol-Myers Squibb Company, priority 2005, dated 2009).

One assay deals with HCV replicon cells. The assay can be described thus: HCV replicon FRET assay. The settings on record: Hepatitis C virus. It is filed as cell-based. An excerpt:
FRET Assay Preparation. To perform the HCV FRET screening assay, 96-well cell culture plates were used. The FRET peptide (Anaspec, Inc.) (Taliani et al., Anal. Biochem. 1996, 240, 60-67) contains a fluorescence donor, EDANS, near one end of the peptide and an acceptor, DABCYL, near the other end. The fluorescence of the peptide is quenched by […] resonance energy transfer (RET) between the donor and the acceptor, but as the NS3 protease cleaves the peptide the products are released from RET quenching and the fluorescence of the donor becomes apparent. The assay reagent was made as follows: 5× cell Luciferase cell culture lysis reagent from Promega (#E153A) diluted to 1× with dH2O, NaCl added to 150 mM final, the FRET peptide diluted to 20 uM final from a 2 mM stock.
To prepare plates, HCV replicon cells, with or without a Renilla luciferase reporter gene, were trypsinized and placed into each well of a 96-well plate with titrated test compounds added in columns 3 through 12; columns 1 and 2 contained a control compound (HCV protease inhibitor), and the bottom row contained cells without compound. The plates were then placed in a CO2 incubator at 37° C.
Assays. Subsequent to addition of the test compounds described above (FRET Assay Preparation), at various times the plate was removed and Alamar blue solution (Trek Diagnostics, #00-100) was added per well as a measure of cellular toxicity. After reading in a Cytoflour 4000 instrument (PE Biosystems), plates were rinsed with PBS and then used for FRET assay by the addition of 30 ul of the FRET peptide assay reagent described above (FRET Assay Preparation) per well. The plate was then placed into the Cytoflour 4000 instrument which had been set to 340 excite/490 emission, automatic mode for 20 cycles and the plate read in a kinetic mode. Typically, the signal to noise using an endpoint analysis after the reads was at least three-fold. Alternatively, after Alamar blue reading, plates were rinsed with PBS, 50 ul of DMEM (high glucose) without phenol red was added and plates were then used for luciferase assay using the Promega Dual-Glo Luciferase Assay System.
Compound analysis was determined by quantification of the relative HCV replicon inhibition and the relative cytotoxicity values. To calculate cytoxicity values, the average Alamar Blue fluorescence signals from the control wells were set as 100% non-toxic. The individual signals in each of the compound test wells were then divided by the average control signal and multiplied by 100% to determine […]. To calculate the HCV replicon inhibition values, an average background value was obtained from the two wells containing the highest amount of HCV protease inhibitor at the end of the assay period. These numbers were similar to those obtained from naïve Huh-7 cells.
The background numbers were then subtracted from the average signal obtained from the control wells and this number was used as 100% activity. The individual signals in each of the compound test wells were then divided by the averaged control values after background subtraction and multiplied by 100% to determine percent activity. EC50 values for a protease inhibitor titration were calculated as the concentration which caused a 50% reduction in FRET or luciferase activity. The two numbers generated for the compound plate, percent cytoxicity and percent activity were used to determine compounds of interest for further analysis.
`O=C(O)c1ccc2c(C3CCCCC3)c3n(c2c1)CC1(C(=O)N2CCOCC2)CC1c1ccccc1-3` (centres unmarked) had a 50% effective concentration (EC50) of 0.02 to 1 µM.

In turn, `CN(C)S(=O)(=O)NC(=O)c1ccc2c(C3CCCCC3)c3n(c2c1)CC1(C(=O)N2CCOCC2)CC1c1ccccc1-3` (centres unmarked) displayed an EC50 of 0.02 to 1 µM. Still for that read-out and setting: in the case of `COC(=O)c1ccc2c(C3CCCCC3)c3n(c2c1)CC1(C(=O)OC)CC1c1cc(OC)ccc1-3` (centres unmarked) it was 0.02 to 1 µM; in that of `COc1ccc2c(c1)C1CC1(C(=O)N1C[C@@H](C)O[C@@H](C)C1)Cn1c-2c(C2CCCCC2)c2ccc(C(=O)NS(=O)(=O)N(C)C)cc21` (some centres unmarked), 0.02 to 1 µM; in that of `COC(=O)C12CC1c1cc(OC)ccc1-c1c(C3CCCCC3)c3ccc(C(=O)O)cc3n1C2` (centres unmarked), 1 to 10 µM. Still for that read-out and setting: the same measure for `COc1ccc2c(c1)C1CC1(C(=O)N1C[C@@H](C)N[C@@H](C)C1)Cn1c-2c(C2CCCCC2)c2ccc(C(=O)NS(=O)(=O)N(C)C)cc21` (some centres unmarked): 0.02 to 1 µM. `COc1ccc2c(c1)C1CC1(C(=O)N1CCOCC1)Cn1c-2c(C2CCCCC2)c2ccc(C(=O)NS(=O)(=O)N(C)C)cc21` (centres unmarked) came in with a concentration for a half-maximal effect (EC50) of 0.02 to 1 µM. Compound `COC[C@H]1CN(C(=O)C23CC2c2cc(OC)ccc2-c2c(C4CCCCC4)c4ccc(C(=O)NS(=O)(=O)N(C)C)cc4n2C3)CCO1` (some centres unmarked) gave a half-maximal effective concentration (EC50) of 0.02 to 1 µM.

The compound `COC[C@@H]1CN(C(=O)C23CC2c2cc(OC)ccc2-c2c(C4CCCCC4)c4ccc(C(=O)NS(=O)(=O)N(C)C)cc4n2C3)CCO1` (some centres unmarked) [listing 1 of 2 here] had an EC50 of 0.02 to 1 µM.

Take `COC[C@@H]1CN(C(=O)C23CC2c2cc(OC)ccc2-c2c(C4CCCCC4)c4ccc(C(=O)NS(=O)(=O)N(C)C)cc4n2C3)CCO1` (some centres unmarked) [listing 2 of 2 here]: the half-maximal effective concentration (EC50) lay in the range of 0.097 to 1 µM.

`O=C(O)c1ccc2c(C3CCCCC3)c3n(c2c1)C[C@@]1(C(=O)N2CCOCC2)C[C@H]1c1ccccc1-3` (single isomer, unassigned) had an EC50 of 0.02 to 1 µM. Same read-out and setting: in the case of `O=C(O)c1ccc2c(C3CCCCC3)c3n(c2c1)C[C@]1(C(=O)N2CCOCC2)C[C@@H]1c1ccccc1-3` (single isomer, unassigned) it was 0.02 to 1 µM; in that of `CN(C)S(=O)(=O)NC(=O)c1ccc2c(C3CCCCC3)c3n(c2c1)C[C@@]1(C(=O)N2CCOCC2)C[C@H]1c1ccccc1-3` (single isomer, unassigned), 0.02 to 1 µM. Same read-out and setting: in the case of `CN(C)S(=O)(=O)NC(=O)c1ccc2c(C3CCCCC3)c3n(c2c1)C[C@]1(C(=O)N2CCOCC2)C[C@@H]1c1ccccc1-3` (single isomer, unassigned) it was 0.02 to 1 µM.

The assay is the same for the next values; noted with them: Hepatitis C virus, HCV replicon cells, FRET assay; read-out: EC50.
For `COC(=O)c1ccc2c(C3CCCCC3)c3n(c2c1)CC1(C(=O)N2CCOCC2)CC1c1ccccc1-3` (centres unmarked), the 50% effective concentration (EC50) was in the range of 0.02 to 1 µM. With `COc1ccc2c(c1)C1CC1(C(=O)N1CCOCC1)Cn1c-2c(C2CCCCC2)c2ccc(C(=O)O)cc21` (centres unmarked), the EC50 is 0.02 to 1 µM. On the same count and under the same terms, in the case of `COc1ccc2c(c1)C1CC1(C(=O)N1C[C@@H](C)O[C@@H](C)C1)Cn1c-2c(C2CCCCC2)c2ccc(C(=O)O)cc21` (some centres unmarked) it was 0.02 to 1 µM. For the compound `CCN(CC)C1CCN(C(=O)C23CC2c2cc(OC)ccc2-c2c(C4CCCCC4)c4ccc(C(=O)NS(=O)(=O)N(C)C)cc4n2C3)CC1` (centres unmarked), the EC50 lay within 0.02 to 1 µM. Same read-out and setting: the same measure for `COc1ccc2c(c1)C1CC1(C(=O)N1CCOC(CN(C)C)C1)Cn1c-2c(C2CCCCC2)c2ccc(C(=O)NS(=O)(=O)C3CC3)cc21` (centres unmarked): 0.02 to 1 µM. Still for that read-out and setting: the same measure for `COc1ccc2c(c1)C1CC1(C(=O)N1CCC(N3CCOCC3)CC1)Cn1c-2c(C2CCCCC2)c2ccc(C(=O)NS(=O)(=O)C3CC3)cc21` (centres unmarked): 0.02 to 1 µM. Regarding `COC(=O)C12CC1c1cc(OC)ccc1-c1c(C3CCCCC3)c3ccc(C(=O)OC(C)(C)C)cc3n1C2` (centres unmarked), the EC50 is more than 10 µM. The same measure, in the same setting: in the case of `COc1ccc2c(c1)C1C[C@]1(C(=O)O)Cn1c-2c(C2CCCCC2)c2ccc(C(=O)NS(=O)(=O)N(C)C)cc21` (some centres unmarked) it was 1 to 10 µM. For `COc1ccc2c(c1)C1CC1(C(=O)N1CCOCC1)Cn1c-2c(C2CCCCC2)c2ccc(C(=O)NS(=O)(=O)N3CCN(C)CC3)cc21` (centres unmarked), the EC50 lay within 0.02 to 1 µM. Still for that read-out and setting: the same measure for `COc1ccc2c(c1)C1CC1(C(=O)N1CCOCC1)Cn1c-2c(C2CCCCC2)c2ccc(C(=O)NS(=O)(=O)N3CCOCC3)cc21` (centres unmarked): 0.02 to 1 µM.

In the case of `COc1ccc2c(c1)C1CC1(C(=O)N1CCOCC1)Cn1c-2c(C2CCCCC2)c2ccc(C(=O)NS(=O)(=O)C3CC3)cc21` (centres unmarked), the 50% effective concentration (EC50) lay within 0.02 to 1 µM. On the same count and under the same terms, the same measure for `COc1ccc2c(c1)C1CC1(C(=O)N(C)C)Cn1c-2c(C2CCCCC2)c2ccc(C(=O)NS(=O)(=O)N(C)C)cc21` (centres unmarked): 0.02 to 1 µM.

`CC(C)c1ccc2c(c1)C1CC1(C(=O)N1CCOCC1)Cn1c-2c(C2CCCCC2)c2ccc(C(=O)O)cc21` (centres unmarked): the EC50 was 0.02 to 1 µM. Consider `COC(=O)C12CC1c1cc(O)ccc1-c1c(C3CCCCC3)c3ccc(C(=O)NS(=O)(=O)N(C)C)cc3n1C2` (centres unmarked), for which the EC50 lay within 0.02 to 1 µM. On the same count and under the same terms, in the case of `Cc1ccc2c(c1)C1CC1(C(=O)N1CCOCC1)Cn1c-2c(C2CCCCC2)c2ccc(C(=O)O)cc21` (centres unmarked) it was 0.02 to 1 µM.

Regarding `CCc1ccc2c(c1)C1CC1(C(=O)N1CCOCC1)Cn1c-2c(C2CCCCC2)c2ccc(C(=O)NS(=O)(=O)N(C)C)cc21` (centres unmarked), the EC50 is 0.02 to 1 µM.

For `CCc1ccc2c(c1)C1CC1(C(=O)N1CCOCC1)Cn1c-2c(C2CCCCC2)c2ccc(C(=O)O)cc21` (centres unmarked), the EC50 lay in the range of 0.02 to 1 µM. Same read-out and setting: the same measure for `CC(C)Oc1ccc2c(c1)C1CC1(C(=O)N1CCOCC1)Cn1c-2c(C2CCCCC2)c2ccc(C(=O)NS(=O)(=O)N(C)C)cc21` (centres unmarked): 0.02 to 1 µM; for `C=Cc1ccc2c(c1)C1CC1(C(=O)N1CCOCC1)Cn1c-2c(C2CCCCC2)c2ccc(C(=O)O)cc21` (centres unmarked): 0.02 to 1 µM; for `CCOc1ccc2c(c1)C1CC1(C(=O)N1CCOCC1)Cn1c-2c(C2CCCCC2)c2ccc(C(=O)NS(=O)(=O)N(C)C)cc21` (centres unmarked): 0.02 to 1 µM. Still for that read-out and setting: the same measure for `CN(C)S(=O)(=O)NC(=O)c1ccc2c(C3CCCCC3)c3n(c2c1)CC1(C(=O)N2CCOCC2)CC1c1cc(O)ccc1-3` (centres unmarked): 0.02 to 1 µM; for `CC(C)Oc1ccc2c(c1)C1CC1(C(=O)N1CCOCC1)Cn1c-2c(C2CCCCC2)c2ccc(C(=O)O)cc21` (centres unmarked): 0.02 to 1 µM; for `CCOc1ccc2c(c1)C1CC1(C(=O)N1CCOCC1)Cn1c-2c(C2CCCCC2)c2ccc(C(=O)O)cc21` (centres unmarked): 0.02 to 1 µM. Still for that read-out and setting: the same measure for `COC(=O)c1ccc2c(C3CCCCC3)c3n(c2c1)CC1(C(=O)N2CCOCC2)CC1c1cc(OC(C)C)ccc1-3` (centres unmarked): 0.02 to 1 µM. With `COc1ccc2c(c1)C1CC1(C(=O)N1CCC(N3CCOCC3)CC1)Cn1c-2c(C2CCCCC2)c2ccc(C(=O)O)cc21` (centres unmarked), the EC50 was 0.02 to 1 µM.

In the case of `CCN(CC)C(=O)CN(C)C(=O)C12CC1c1cc(OC)ccc1-c1c(C3CCCCC3)c3ccc(C(=O)NS(=O)(=O)N(C)C)cc3n1C2` (centres unmarked), the EC50 lay in the range of 0.02 to 1 µM. Same read-out and setting: the same measure for `C[C@@H]1CN(C(=O)C23CC2c2cc(OCc4ccccc4)ccc2-c2c(C4CCCCC4)c4ccc(C(=O)NS(=O)(=O)N(C)C)cc4n2C3)C[C@H](C)O1` (some centres unmarked): 0.02 to 1 µM; for `C[C@@H]1CN(C(=O)C23CC2c2cc(O)ccc2-c2c(C4CCCCC4)c4ccc(C(=O)NS(=O)(=O)N(C)C)cc4n2C3)C[C@H](C)O1` (some centres unmarked): 0.02 to 1 µM; for `COc1ccc2c(c1)C1C[C@]1(C(=O)N[C@@H]1C3CCC(C)([C@@H]1O)C3(C)C)Cn1c-2c(C2CCCCC2)c2ccc(C(=O)NS(=O)(=O)N(C)C)cc21` (some centres unmarked): 0.02 to 1 µM. Same read-out and setting: the same measure for `COc1ccc2c(c1OCc1ccccc1)C1CC1(C(=O)O)Cn1c-2c(C2CCCCC2)c2ccc(C(=O)NS(=O)(=O)N(C)C)cc21` (centres unmarked): more than 1 µM. The same measure, in the same setting: the same measure for `CCN(C)CCN(C)C(=O)C12CC1c1cc(OC)ccc1-c1c(C3CCCCC3)c3ccc(C(=O)NS(=O)(=O)N(C)C)cc3n1C2` (centres unmarked): 0.097 to 1 µM; for `COc1ccc2c(c1)[C@@H]1C[C@]1(C(=O)N1CCCC[C@H]1CN(C)C)Cn1c-2c(C2CCCCC2)c2ccc(C(=O)NS(=O)(=O)N(C)C)cc21`: 0.097 to 1 µM; for `COc1ccc2c(c1)[C@@H]1C[C@]1(C(=O)N1CCCC[C@@H]1CN(C)C)Cn1c-2c(C2CCCCC2)c2ccc(C(=O)NS(=O)(=O)N(C)C)cc21`: 0.097 to 1 µM. As to `COc1ccc2c(c1)C1CC1(C(=O)N1C[C@@H](C)O[C@@H](C)C1)Cn1c-2c(C2CCCCC2)c2ccc(C(=O)NS(C)(=O)=O)cc21` (some centres unmarked), the EC50 fell in the range of 0.097 to 1 µM. On the same count and under the same terms, in the case of `COc1ccc2c(c1)C1C[C@@]1(C(=O)O)Cn1c-2c(C2CCCCC2)c2ccc(C(=O)NS(=O)(=O)N(C)C)cc21` (single isomer, unassigned) it was 1 to 10 µM.

For the next assay, the system named is HCV.
Assay: not given
The settings on record: HCV patients, combination therapy; cited from earlier work.
On to alpha-interferon and ribavirin, for which the sustained efficacy was 40 % of patients.
